# Source: patent US9150526B2, “Biaryl-propionic acid derivatives and their use as pharmaceuticals” (SANOFI, priority 2013, dated 2015)
# Tested on: Recombinant human cathepsin A
# Assay: Cathepsin A inhibitory activity (Bodipy FL-bradykinin substrate, microfluidic capillary electrophoresis)
# Assay type: biochemical
# Details: read-out: CATH A IC50
# Procedure: Pharmacological Tests a) Cathepsin a Inhibitory Activity
# Recombinant human cathepsin A (residues 29-480, with a C-terminal 10-His tag; R&D Systems, #1049-SE) was proteolytically activated with recombinant human cathepsin L (R&D Systems, #952-CY). Briefly, cathepsin A was incubated at 10 μg/ml with cathepsin L at 1 μg/ml in activation buffer (25 mM 2-(morpholin-4-yl)-ethanesulfonic acid (MES), pH 6.0, containing 5 mM dithiothreitol (DTT)) for 15 min at 37° C.
# The activated cathepsin A was diluted in assay buffer (25 mM MES, pH 5.5, containing 5 mM DTT) and mixed with the test compound (dissolved in assay buffer containing (v/v) 3% DMSO) or, in the control experiments, with the vehicle in a multiple assay plate. After incubation for 15 min at room temperature, as substrate then bradykinin carrying an N-terminal ®Bodipy FL (4,4-difluoro-5,7-dimethyl-4-bora-3a,4a-diaza-s-indacene-3-propionyl) label (JPT Peptide Technologies GmbH; dissolved in assay buffer) was added to the mixture. The final concentration of cathepsin A was 833 ng/ml and the final concentration of labeled bradykinin 2 μM. After incubation for 15 min at room temperature the reaction was stopped by the addition of stop buffer (130 mM 2-(4-(2-hydroxy-ethyl)-piperazin-1-yl)-ethanesulfonic acid, pH 7.4, containing (v/v) 0.013% ®Triton X-100, 0.13% Coating Reagent 3 (Caliper Life Sciences), 6.5% DMSO and 20 μM ebelactone B (Sigma, # E0886)).
# Uncleaved substrate and product were then separated by a microfluidic capillary electrophoresis on a LabChip® 3000 Drug Discovery System (12-Sipper-Chip; Caliper Life Sciences) and quantified by determination of the respective peak areas. Substrate turnover was calculated by dividing product peak area by the sum of substrate and product peak areas, and the enzyme activity and the inhibitory effect of the test compound thus quantified.
row,Compound,IC50 [nM]
1,COc1ccc(OC)c(-c2cc(Cl)cc(C(CC(=O)O)c3ncc(C)s3)c2)c1 (stereo not shown) [compound 76],28
2,COc1ccc(C(C)(C)C)cc1-c1cccc(C(CC(=O)O)c2nnc(C)o2)c1 (stereo not shown) [compound 9],61
3,COc1cc(F)ccc1-c1cc(Cl)cc(C(CC(=O)O)c2ncc(C)s2)c1 (stereo not shown) [compound 90],119
4,COc1ccc(F)cc1-c1cccc(C(CC(=O)O)c2ncc(C)s2)c1 (stereo not shown) [compound 55],96
5,COc1ccc(C#N)cc1-c1cccc(C(CC(=O)O)c2nccs2)c1 (stereo not shown) [compound 39],618
6,CCOc1ccccc1-c1cc(Cl)cc(C(CC(=O)O)c2ncc(C)s2)c1 (stereo not shown) [compound 80],47
7,COc1ccc(Cl)cc1-c1cccc(C(CC(=O)O)c2nnc(C)o2)c1 (stereo not shown) [compound 50],108
8,COc1ccc(C(C)C)cc1-c1cccc(C(CC(=O)O)c2nccs2)c1 (stereo not shown) [compound 2],132
9,COc1ccc(C)cc1-c1cccc(C(CC(=O)O)c2ncc(C)s2)c1 (stereo not shown) [compound 53],85
10,CCOc1ccc(C)cc1-c1cc(F)cc(C(CC(=O)O)c2ncco2)c1 (stereo not shown) [compound 117],155
11,COc1c(F)cc(F)cc1-c1cccc(C(CC(=O)O)c2nccs2)c1 (stereo not shown) [compound 36],467
12,COc1c(-c2cccc(C(CC(=O)O)c3nccs3)c2)cccc1C(F)(F)F (stereo not shown) [compound 49],7000
13,COc1ccc(OC(F)(F)F)cc1-c1cc(Cl)cc(C(CC(=O)O)c2ncc(C)s2)c1 (stereo not shown) [compound 94],165
14,COc1cccc(Cl)c1-c1cccc(C(CC(=O)O)c2nnc(C)o2)c1 (stereo not shown) [compound 142],80
15,COc1ccc(-c2cccc(C(CC(=O)O)c3nccs3)c2)c(OC)c1 (stereo not shown) [compound 29],185
16,COc1ccc(-c2cc(F)cc(C(CC(=O)O)c3ncc(C)s3)c2)c(OC)c1 (stereo not shown) [compound 120],199
17,COc1cc(OC(F)(F)F)ccc1-c1cccc(C(CC(=O)O)c2nccs2)c1 (stereo not shown) [compound 46],1530
18,COc1cc(F)ccc1-c1cc(F)cc(C(CC(=O)O)c2ncc(C)s2)c1 (stereo not shown) [compound 123],246
19,COc1cccc(OC)c1-c1cc(F)cc(C(CC(=O)O)c2ncc(C)s2)c1 (stereo not shown) [compound 7],5
20,COc1ccc(CO)cc1-c1cc(Cl)cc(C(CC(=O)O)c2ncc(C)s2)c1 (stereo not shown) [compound 77],29
21,COc1c(F)cccc1-c1cccc(C(CC(=O)O)c2nccs2)c1 (stereo not shown) [compound 42],1040

# Continued, values first:
row,IC50 [nM],Compound
1,231,Cc1nnc(C(CC(=O)O)c2cc(F)cc(-c3ccccc3OC(F)(F)F)c2)o1 (stereo not shown) [compound 165]
2,571,COc1c(C)cccc1-c1cccc(C(CC(=O)O)c2nnc(C)o2)c1 (stereo not shown) [compound 151]
3,17,COc1ccc(Cl)cc1-c1cc(C(CC(=O)O)c2nnc(C)o2)cc(C(F)(F)F)c1 (stereo not shown) [compound 209]
4,23,COc1ccc(-c2cc(C(CC(=O)O)c3nnc(C)o3)cc(C(F)(F)F)c2)c(OC)c1 (stereo not shown) [compound 211]
5,2220,COc1ccc(C)cc1-c1cncc(C(CC(=O)O)c2nnc(C)o2)c1 (stereo not shown) [compound 181]
6,24,CCOc1ccccc1-c1cc(Cl)cc(C(CC(=O)O)c2nnc(C)o2)c1 (stereo not shown) [compound 177]
7,85,COc1ccc(OC(F)(F)F)cc1-c1cccc(C(CC(=O)O)c2nnc(C)o2)c1 (stereo not shown) [compound 143]
8,13,COc1ccccc1-c1cc(C(CC(=O)O)c2nnc(C)o2)cc(C(F)(F)F)c1 (stereo not shown) [compound 217]
9,265,COc1ccc(S(C)(=O)=O)cc1-c1cccc(C(CC(=O)O)c2nnc(C)o2)c1 (stereo not shown) [compound 149]
10,588,COc1ccc(S(C)(=O)=O)cc1-c1cc(F)cc(C(CC(=O)O)c2nnc(C)o2)c1 (stereo not shown) [compound 178]
11,116,COc1cccc(F)c1-c1cccc(C(CC(=O)O)c2nnc(C)o2)c1 (stereo not shown) [compound 145]
12,27,COc1ccc(C(C)C)cc1-c1cccc([C@@H](CC(=O)O)c2nnc(C)o2)c1 [compound 185]
13,17,COc1ccc2c(c1-c1cc(Cl)cc(C(CC(=O)O)c3nnc(C)o3)c1)OC(C)(C)C2 (stereo not shown) [compound 157]
